pIC50: −log10 of the molar value. *1 amine or outer side, *2 acyl side, *3 side chain or, on linkers, in order; H or OH if unused. Where a SMILES comes first, the peptide text is derived from it. [ ]: non-standard residue; d: D form. The star is where a group is joined. X2 = O=C(C(=O)[*:2])[C@H](Cc1ccccc1)N[*:1]; NH(4-phenylbutyl) = c1ccc(CCCCN*)cc1; X1 = C[C@H](N[*:1])C(=O)C(=O)[*:2]; AMC = Cc1cc(=O)oc2cc(N*)ccc12
What was measured:
Parkin [1] = assay: Parkin recruitment to mitochondria, subcellular fractionation and immunoblot; format: cell-based, human; details: HEK293 T-REx PINK1 cells, HA-Parkin-IRES-GFP; 5 μM compound 5, CCCP 10 μM or Antimycin A 30 μM
Protocol: (§1) Inducible stable Flp-In HEK293 T-REx cells expressing PINK1 were described previously.[33] HEK293 T-REx PINK1 and HEK293T cells were grown in DMEM (Gibco) supplemented with 10% (v/v) fetal bovine serum (ThermoFisher), 1% (v/v) GlutaMAX (Gibco), 1% (v/v) sodium pyruvate (Gibco), 125 μg/mL hygromycin (Invitrogen), and 10 μg/mL blasticidin (Gibco) or DMEM supplemented with 10% (v/v) fetal bovine serum, respectively, at 37 °C in 5% (v/v) CO2. For microscopy, cells were seeded on poly-L-lysine (Sigma)-coated slides. Transient plasmid transfections were performed using 25 kDa linear polyethylenimine (Polysciences). Plasmid (100 ng) encoding HA-Parkin-IRES-GFP, mito-mCherry or Parkin-mEGFP, or 500 ng plasmid encoding PGAM5-FLAG were used per 6-well. Total transfected DNA was 2 μg/well. For siRNA transfection, 2 × 10^5 cells were seeded per 6-well and on the next day transfected with 20 nM siRNA-oligonucleotide using lipofectamine RNAiMAX (ThermoFisher). Cells were analyzed 27 h post-transfection or five days post-siRNA-transfection. HEK293 T-REx PINK1 cells were induced with 0.3 μg/mL doxycycline for 24 h before further processing. Hoechst staining (1 μg/mL) was done immediately before adding treatment to the cells. Treatments were administered for the indicated times before processing; CCCP (Sigma) was always used as 10 μM for 3 h and Antimycin A (Sigma) as 30 μM for 3 h.
Unless mentioned otherwise, all steps were performed at 4 °C. For subcellular fractionation to separate cellular content into cytosolic and mitochondrial fractions, cells were washed with PBS, harvested in PBS-EDTA (1 mM EDTA, 0.2 g/L D-glucose), and centrifuged at 500 × g for 5 min. […]
For immunoblot analysis in other cases, cells were either processed as described above or washed with PBS and directly lysed with Tris-glycine SDS-PAGE sample buffer and heated for 15 min at 65 °C. […] For quantification, ImageJ was used (http://rsb.info.nih.gov/ij/). […]

Parkin [2] = assay: Parkin recruitment to mitochondria and mitochondrial morphology, fluorescence microscopy; format: cell-based, human; details: HEK293 T-REx PINK1 cells, 3 h; 5 μM compound 5, CCCP or Antimycin A, vs DMSO
Protocol: as §1
For fixation, cells were incubated for 15 min with 4% formaldehyde (16% formaldehyde diluted in PBS, Thermo Scientific) and washed in PBS. The cover glasses were mounted with Fluoromount-G (Southern Biotech) on microscope slides. […] Parkin recruitment events to the mitochondria were counted by hand throughout each z-stack and cell. […] JC-1 images were handled as summed intensity z-stack projections, as well as subjected to flatfield correction and subtraction of background before measuring the fluorescence levels normalized to the number of cell nuclei. The fluorescence intensity ratio between the red and green signal was calculated and compared to DMSO as a ratio of 1. Data were evaluated using Excel and GraphPad Prism 6.

PARL [3] = target: T1, PARL (Homo sapiens, UniProt Q9H300); assay: In vitro assay for PARL activity, cleavage of AMC substrates by liposome-embedded PARL; format: biochemical; parameters: hexahistidine tag (C); made in house; host or cells: continuous-exchange cell-free expression in bacterial lysates with T7 polymerase (CUBE biotech), into liposomes; details: mature PARL in liposomes, S277A catalytic mutant as control
T1 sequence (Q9H300 53-379): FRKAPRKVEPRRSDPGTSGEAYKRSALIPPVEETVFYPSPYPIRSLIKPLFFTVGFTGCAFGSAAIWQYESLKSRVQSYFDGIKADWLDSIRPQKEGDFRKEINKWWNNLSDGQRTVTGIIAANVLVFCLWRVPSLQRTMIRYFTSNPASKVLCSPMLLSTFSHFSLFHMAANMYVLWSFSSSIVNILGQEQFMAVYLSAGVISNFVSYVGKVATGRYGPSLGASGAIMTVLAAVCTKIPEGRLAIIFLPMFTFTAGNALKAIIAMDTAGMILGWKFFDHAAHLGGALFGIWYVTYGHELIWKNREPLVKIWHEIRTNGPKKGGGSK
Protocol: Liposome preparation and cell-free protein expression of PARL were carried out essentially as described previously.[27] Liposomes resembling the lipid composition of the IMM were prepared by mixing 40% DOPC (1,2-dioleoyl-sn-glycero-3-phosphocholine), 33.8% DOPE (1,2-dioleoyl-sn-glycero-3-phosphoethanolamine), 18% CL(18:1)4 (1′,3′-bis[1,2-dioleyl-sn-glycero-3-phospho]-glycerol), 3% DOPS (1,2-dioleoyl-sn-glycero-3-phospho-L-serine), 5% soy-PI (L-α-phosphatidylinositol), and 0.2% rhodamine-PE (1,2-dioleoyl-sn-glycero-3-phosphoethanolamine-N-(lissamine rhodamine B sulfonyl)) in chloroform, followed by the evaporation of chloroform by a stream of nitrogen gas and drying in a vacuum chamber (Binder) for 1 h. […] Concentration of PARL was determined by absorption at 280 nm.
The PARL activity assay in vitro was carried out in 5 mM Tris, 5 mM Mg(OAc)2, 25 μM Zn(OAc)2, 0.1 μg/μL BSA, 30% DMSO, pH 8.0 using PARL in liposomes at 0.05 mg/mL. Compound 3 and 4 were used at 5 μM final concentration based on quantitative amino acid analysis. […] The cleavage reaction was carried out at 37 °C in 96-well black HTS plates (Greiner Bio-One) in a plate reader (Tecan Infinite M1000) with excitation and emission wavelengths set to 355 and 450 nm, respectively. Data were evaluated using Excel (Microsoft) and GraphPad Prism 9 (GraphPad Software, Inc.).

PARL [4] = target: T1, PARL; assay: PARL inhibition assay in cells: cleavage of overexpressed PGAM5-Myc by tetracycline-induced PARL-FLAG, immunoblot; format: cell-based; parameters: expressed in transfected cells; host or cells: Flp-In HEK293 T-REx PARL knockout cells; details: Flp-In HEK293 T-REx PARL KO cells with inducible PARL-FLAG, PGAM5-Myc, mean ± SEM of four or three experiments; read-out: Apparent IC50, PGAM5 cleavage by overexpressed PARL
Protocol: PARL inhibition assays in cells were carried out in Flp-In HEK293 T-REx PARL knockout cells stably transfected with tetracycline inducible PARL-FLAG grown in DMEM (Gibco) supplemented with 10% (v/v) tetracycline-free fetal bovine serum (Clontech). For the inhibition assay, 0.7 × 10^6 cells were seeded per well of a 6-well plate, and the next day transfected with 5 μg of human PGAM5-Myc in pcDNA and 15 μg of branched polyethylenimine (Polysciences) per well. Four hours after transfection, the PARL expression was induced by adding tetracycline to 1 μg/mL. Eight hours after transfection, the inhibitors were added to each well in different concentrations in serum-free DMEM with 1% DMSO.
For immunoblot analysis of the effects of PARL inhibitors on PGAM5 cleavage, after overnight incubation with inhibitors, cells from each well were harvested in 1× SDS sample buffer containing 20 mM MgCl2 and Pierce universal nuclease (250 U/mL, Thermo Scientific) and heated to 65 °C for 10 min. Loading volumes for SDS-PAGE were adjusted by measuring total protein concentration in the lysates with Pierce 660 nm Protein Assay Reagent and Ionic Detergent Compatibility Reagent for Pierce 660 nm Protein Assay Reagent (Thermo Scientific). Samples were resolved by SDS-PAGE using a 12% polyacrylamide gel (Biorad) and electrotransferred onto an Immobilon PVDF membrane (Merck Millipore). Blots were blocked using casein blocker (Thermo Scientific) and hPGAM5 was labeled by rabbit anti-Myc antibody (Cell Signaling Technology, cat. #2278, dilution 1:1000) at 4 °C overnight. Blots were washed three times with TBS-T and incubated with IRDye 800 CW donkey anti-rabbit antibody (Invitrogen, cat. #SA5-10044, dilution 1:10,000) at room temperature for 2 h. Membranes were then again washed three times with TBS-T and one time with TBS. Fluorescence emission at […] of dried membranes was scanned on Odyssey CLx (LI-COR). Cleavage efficiency and inhibition were analyzed as described[23] using Image Studio Lite (LI-COR), Excel (Microsoft) and GraphPad Prism 9 (GraphPad Software, Inc.).

PARL [5] = target: T1, PARL; assay: PARL inhibition in vitro, PARL in liposomes with substrate compound 4; format: biochemical; parameters: hexahistidine tag (C); made in house; host or cells: continuous-exchange cell-free expression in bacterial lysates with T7 polymerase (CUBE biotech), into liposomes; details: recombinant mature PARL in liposomes, 100 μM substrate compound 4, mean ± SEM of three or four measurements
Protocol: Liposome preparation and cell-free protein expression of PARL were carried out essentially as described previously.[27] Liposomes resembling the lipid composition of the IMM were prepared by mixing 40% DOPC (1,2-dioleoyl-sn-glycero-3-phosphocholine), 33.8% DOPE (1,2-dioleoyl-sn-glycero-3-phosphoethanolamine), 18% CL(18:1)4 (1′,3′-bis[1,2-dioleyl-sn-glycero-3-phospho]-glycerol), 3% DOPS (1,2-dioleoyl-sn-glycero-3-phospho-L-serine), 5% soy-PI (L-α-phosphatidylinositol), and 0.2% rhodamine-PE (1,2-dioleoyl-sn-glycero-3-phosphoethanolamine-N-(lissamine rhodamine B sulfonyl)) in chloroform, followed by the evaporation of chloroform by a stream of nitrogen gas and drying in a vacuum chamber (Binder) for 1 h. Dried lipids were dissolved in buffer (5 mM Tris/HCl, pH 8.5, 10 mM KOAc) and extruded 21 times through a mini extruder (Avanti Polar Lipids) using a polycarbonate membrane with a pore size of […]. […] The PARL-containing liposomes were purified by a step-wise sucrose step-gradient centrifugation (0, 15, 30, and 40% sucrose in 5 mM HEPES pH 7.5 with 25 mM NaCl) for 2 h at 200,000 × g. Soluble proteoliposomes were harvested at the 0%/15% sucrose interface after the centrifugation. Concentration of PARL was determined by absorption at 280 nm.
PARL inhibition in vitro was measured in 5 mM Tris, 5 mM Mg(OAc)2, 25 μM Zn(OAc)2, 0.1 μg/μL BSA, 10% DMSO, pH 8.0 using PARL in liposomes at 0.07 mg/mL and compound 4 at 100 μM final concentration. Inhibitor concentrations were determined by quantitative amino acid analysis. Inhibitors in DMSO were dissolved at the respective concentrations into the reaction buffer by vigorous mixing at 1000 rpm, 37 °C for 40 min and then pre-incubated with PARL in liposomes at 37° for 1 h. The cleavage reaction was started by adding compound 4 and carried out at 37 °C in 96-well black HTS plates (Greiner Bio-One). Fluorescence was read in a plate reader (Tecan Infinite M1000) with excitation and emission wavelengths set to 355 and 450 nm, respectively. Data were evaluated using Excel (Microsoft) and GraphPad Prism 9 (GraphPad Software, Inc.). The data shown are representative of at least three independent experiments.

For CCCCCC[C@H]1C(=O)O[C@H](C)[C@H](NC(=O)c2cccc(NC=O)c2O)C(=O)O[C@@H](C)[C@@H]1OC(=O)CC(C)C [Antimycin A], the “Parkin recruitment to the mitochondrial fraction” value (Parkin [1]) was “activates the PINK1/Parkin pathway” and the “Recruitment of Parkin-mEGFP to mitochondria (microscopy)” value (Parkin [2]) was “not significantly different from Parkin recruitment under DMSO conditions”.

In the case of CC(=O)N[C@@H](C)C(=O)N[C@H](C(=O)N[C@@H](Cc1ccccc1)C(=O)N[C@@H](CC(C)C)C(=O)N[C@@H](C)C(=O)Nc1ccc2c(C)cc(=O)oc2c1)C(C)C [compound 3, AcAVFLA-4mc] (Ac-AVFLA-{AMC}), the “Cleavage of substrate by liposome-embedded PARL” value (PARL [3]) was “are cleaved by liposome-embedded PARL but not its catalytic mutant”.

With CC(=O)N[C@@H](CCCNC(=N)N)C(=O)N[C@@H](CCCNC(=N)N)C(=O)N[C@@H](C)C(=O)N[C@H](C(=O)N[C@@H](Cc1ccccc1)C(=O)N[C@@H](CC(C)C)C(=O)N[C@@H](C)C(=O)C(=O)NCCCCc1ccccc1)C(C)C [compound 6] (Ac-RRAVFL[X1]-{NH(4-phenylbutyl)}) the pIC50 (PARL [4]) was 5.49 and the pIC50 (PARL [5]) was 7.10.

CC[C@H](C)[C@H](NC(=O)[C@H](CCCCN)NC(=O)[C@H](Cc1ccccc1)NC(=O)[C@H](CCCNC(=N)N)NC(=O)[C@H](CCCNC(=N)N)NC(C)=O)C(=O)N[C@@H](Cc1ccccc1)C(=O)C(=O)NCCCCc1ccccc1 [compound 7] (Ac-RRFKI[X2]-{NH(4-phenylbutyl)}) showed a pIC50 (PARL [5]) of 5.98.

From paper PMC9841525, “Chemical Blockage of the Mitochondrial Rhomboid Protease PARL by Novel Ketoamide Inhibitors Reveals Its Role in PINK1/Parkin-Dependent Mitophagy” (Journal of Medicinal Chemistry, 2022)
